Measurements as given in US20070275961A1, “Triazolo ' 1, 5-A ! Pyrimidines and Their Use in Medicine” (VERNALIS (CAMBRIDGE) LIMITED., priority 2003, published 2007).
pIC50: −log10 of the molar value. Read-outs that look alike come from different tables or passages of the source.

Tests used:
Assay type in all cases: biochemical
Chk1 = target: T1, Chk1 (Homo sapiens, UniProt O14757); assay: Chk1 kinase assay, phosphorylation of Chktide (33P-ATP filtration); conditions: 0.01 mM ATP, read-out: Chk1 IC50
T1 sequence (O14757 1-476): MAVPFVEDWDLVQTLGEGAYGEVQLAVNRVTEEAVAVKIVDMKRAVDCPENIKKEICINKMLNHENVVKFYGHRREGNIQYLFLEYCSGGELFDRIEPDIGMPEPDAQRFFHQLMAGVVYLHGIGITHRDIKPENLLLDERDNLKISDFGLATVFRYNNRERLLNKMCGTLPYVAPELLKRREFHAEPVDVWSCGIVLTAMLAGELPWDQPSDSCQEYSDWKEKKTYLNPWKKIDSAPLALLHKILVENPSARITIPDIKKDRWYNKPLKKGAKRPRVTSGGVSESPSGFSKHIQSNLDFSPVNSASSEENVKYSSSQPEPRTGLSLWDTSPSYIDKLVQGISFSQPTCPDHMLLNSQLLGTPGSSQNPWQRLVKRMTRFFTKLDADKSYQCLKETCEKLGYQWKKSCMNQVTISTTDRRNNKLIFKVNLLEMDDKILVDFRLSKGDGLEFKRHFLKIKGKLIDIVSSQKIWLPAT
Method: Assays for the Chk1 kinase activity were carried out by monitoring the phosphorylation of a synthetic peptide Chktide with the amino acid sequence, […]. The assay mixture containing the inhibitor and Chk1 enzyme was mixed together in a microtiter plate in a final volume of 50 μl and incubated for 40 minutes at 30° C.
The assay mixture contained 0.01 mM unlabeled ATP, 0.5 μCi ^33P-γ-ATP, 30 μM Chktide, 0.1 mg/ml BSA, 50 mM Hepes-NaOH pH 7.5 and 11 nM GST-Chk1 enzyme. The reaction was stopped by adding 50 μl of 50 mM phosphoric acid. 90 μl of the mixture was transferred to a pre-wetted 96-well Multiscreen MAPHNOB filtration plate (Millipore) and filtered on a vacuum manifold. The filter plate was washed with three successive additions of 200 μl 50 mM phosphoric acid and then with 100 μl methanol. The filtration plate was dried for 10 min at 65° C., scintillant added and phosphorylated peptide quantified in a scintillation counter (Trilux, PerkinElmer).

[1] = target: CDK2 enzyme, complexed with cyclin A (Homo sapiens, UniProt P24941); assay: CDK2 cyclin dependent kinase assay, phosphorylation of synthetic peptide […] (33P-ATP filtration); conditions: 0.1 mM ATP
Method: (§1) The assay mixture containing the inhibitor and CDK2 enzyme, complexed with cyclin A (0.4 U/ml) was mixed together in a microtiter plate in a final volume of 50 μl and incubated for 40 min at 30° C. The assay mixture contained 0.1 mM unlabeled ATP, 0.01 μCi/μl ^33P-γ-ATP, 0.03 mM peptide, 0.1 mg/ml BSA, 7.5 mM magnesium acetate, 50 mM HEPES-NaOH, pH 7.5. The reaction was stopped by adding 50 μl of 50 mM phosphoric acid. 90 μl of the mixture were transferred to a pre-wetted 96-well Multiscreen MAPHNOB filtration plate (Millipore) and filtered on a vacuum manifold. The filter plate was washed with three successive additions of 200 μl 50 mM phosphoric acid and then with 100 μl methanol. The filtration plate was dried for 10 min at 65° C., scintillant added and phosphorylated peptide quantified in a scintillation counter (Trilux, PerkinElmer).
HEPES is N-[2-hydroxyethyl]piperazine-N′-[2-ethanesulfonic acid]. BSA is bovine serum albumin.

PDK1 enzyme = target: T2, PDK1 enzyme (Homo sapiens, UniProt O15530); assay: PDK1 3'-phosphoinositide-dependent kinase assay, phosphorylation of synthetic peptide (33P-ATP filtration); conditions: 0.01 mM ATP, read-out: PDK1 IC50
T2 sequence (O15530 1-556): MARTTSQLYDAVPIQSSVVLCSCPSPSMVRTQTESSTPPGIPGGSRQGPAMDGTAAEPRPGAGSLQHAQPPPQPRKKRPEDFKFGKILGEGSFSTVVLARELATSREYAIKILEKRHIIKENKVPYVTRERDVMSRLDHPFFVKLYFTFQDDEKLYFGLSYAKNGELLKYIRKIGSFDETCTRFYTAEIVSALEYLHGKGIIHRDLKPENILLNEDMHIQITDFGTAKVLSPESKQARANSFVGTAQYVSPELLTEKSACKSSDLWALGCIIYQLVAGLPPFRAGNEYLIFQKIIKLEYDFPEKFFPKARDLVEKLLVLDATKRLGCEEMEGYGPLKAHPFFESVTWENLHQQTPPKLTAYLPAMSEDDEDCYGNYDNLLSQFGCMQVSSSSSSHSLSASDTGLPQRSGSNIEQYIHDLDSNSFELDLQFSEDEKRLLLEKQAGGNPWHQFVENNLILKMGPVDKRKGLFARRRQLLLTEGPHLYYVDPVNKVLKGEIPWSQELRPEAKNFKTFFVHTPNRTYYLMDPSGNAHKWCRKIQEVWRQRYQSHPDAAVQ
Method: as §1, with “and PDK1 enzyme” for “and CDK2 enzyme, complexed with cyclin A (0.4 U/ml)”, “for 60” for “for 40”, “contained 0.01” for “contained 0.1”, “^33P-γ-ATP, 0.075” for “^33P-γ-ATP, 0.03”, “acetate, 0.05 M Tris.HCl,” for “acetate, 50 mM HEPES-NaOH,”, “pH 7.5, 0.5% 2-mercaptoethanol.” for “pH 7.5.”

| Structure (SMILES) | pIC50 (Chk1; Table 1) | pIC50 ([1]; Table 1) | pIC50 (PDK1 enzyme; Table 1) | pIC50 (Chk1; Table 2) | pIC50 ([1]; Table 2) | pIC50 (PDK1 enzyme; Table 2) |
| --- | --- | --- | --- | --- | --- | --- |
| CS(=O)(=O)c1ccc(Nc2cc(Cl)nc3ncnn23)cc1 [Example 18] | < 3.70 | 6.09 | < 3.70 |  |  |  |
| NS(=O)(=O)c1ccc(Nc2cc(N3CCC(O)CC3)nc3ncnn23)cc1 [Example 19] | < 3.70 | 6.00 | < 3.70 |  |  |  |
| NS(=O)(=O)c1ccc(Nc2cc(N3CCCC3)nc3ncnn23)cc1 [Example 20] | < 3.70 | 5.48 | < 3.70 |  |  |  |
| CN(C)c1ccc(Nc2cc(Cl)nc3ncnn23)cc1 [Example 21] | < 3.70 | 4.23 | < 3.70 |  |  |  |
| NC(=O)c1cccc(Nc2cc(Cl)nc3ncnn23)c1 [Example 22] | < 3.70 | 4.44 | < 3.70 |  |  |  |
| NS(=O)(=O)c1ccc(Nc2cc(N3CCCC(CO)C3)nc3ncnn23)cc1 (stereo not drawn) [Example 23] | < 3.70 | 6.48 | < 3.70 |  |  |  |
| NS(=O)(=O)c1ccc(Nc2cc(N3CCOCC3)nc3ncnn23)cc1 [Example 24] | < 3.70 | 4.80 | < 3.70 |  |  |  |
| O=C(O)c1ccc(Nc2cc(Cl)nc3ncnn23)cc1 [Example 25] | < 3.70 | 4.03 | < 3.70 |  |  |  |
| CN(C)Cc1ccccc1-c1cc(Nc2cc(Cl)ccc2O)n2ncnc2n1 [Example 26] | 3.98 | < 3.70 | < 3.70 |  |  |  |
| NS(=O)(=O)c1ccc(Nc2cc(-c3cccc(C(=O)O)c3)nc3ncnn23)cc1 [Example 27] | < 3.70 | 4.85 | < 3.70 |  |  |  |
| CCN(CC)CCNC(=O)c1ccc(Nc2cc(-c3cccc(C#N)c3)nc3ncnn23)cc1 [Example 28] | < 3.70 | 4.73 | < 3.70 |  |  |  |
| Cc1cccc(-c2cc(Nc3ccc(C#N)cc3)n3ncnc3n2)c1 [Example 29] | < 3.70 | 4.24 | < 3.70 |  |  |  |
| NS(=O)(=O)c1ccc(Nc2ccnc3ncnn23)cc1 [Example 30] | 4.14 | 4.48 | < 3.70 |  |  |  |
| CC(C)C(CO)Nc1cc(Nc2ccc(S(N)(=O)=O)cc2)n2ncnc2n1 (stereo not drawn) [Example 31] | < 3.70 | 5.31 | < 3.70 |  |  |  |
| Oc1ccc(Cl)cc1Nc1cc(Cl)nc2ncnn12 [Example 32] | < 3.70 | 4.50 | < 3.70 |  |  |  |
| Clc1cccc(-c2cc(Nc3ccc4c(c3)OCO4)n3ncnc3n2)c1 [Example 33] | 4.62 | 4.54 | < 3.70 |  |  |  |
| NS(=O)(=O)c1ccc(Nc2cc(N3CCCCC3)nc3ncnn23)cc1 [Example 34] | < 3.70 | 6.21 | < 3.70 |  |  |  |
| NS(=O)(=O)c1ccc(Nc2cc(Nc3cccc(Cl)c3)nc3ncnn23)cc1 [Example 35] | 4.39 | 5.76 | 4.32 |  |  |  |
| NS(=O)(=O)c1ccc(CNc2cc(Cl)nc3ncnn23)cc1 [Example 38] | < 3.70 | 4.82 | < 3.70 |  |  |  |
| CCN(CC)CCNC(=O)c1ccc(Nc2cc(Cl)nc3ncnn23)cc1 [Example 39] | < 3.70 | 4.37 | < 3.70 |  |  |  |
| COc1ccc(Nc2cc(-c3cccc(Cl)c3)nc3ncnn23)cn1 [Example 40] | < 3.70 | 5.08 | < 3.70 |  |  |  |

| Structure (SMILES) | pIC50 (Chk1; Table 1) | pIC50 ([1]; Table 1) | pIC50 (PDK1 enzyme; Table 1) | pIC50 (Chk1; Table 2) | pIC50 ([1]; Table 2) | pIC50 (PDK1 enzyme; Table 2) |
| --- | --- | --- | --- | --- | --- | --- |
| N#Cc1ccc(Nc2cc(Cl)nc3ncnn23)cc1 [Example 41] | < 3.70 | 4.21 | < 3.70 |  |  |  |
| COc1ccc(Nc2cc(Cl)nc3ncnn23)cn1 [Example 42] | < 3.70 | 4.93 | < 3.70 |  |  |  |
| O[C@H]1CC[C@H](Nc2cc(Cl)nc3ncnn23)CC1 [Example 43] | < 3.70 | < 3.70 | < 3.70 |  |  |  |
| NC(=O)c1sccc1Nc1cc(-c2ccsc2)nc2ncnn12 [Example 44] | < 3.70 | 4.22 | < 3.70 |  |  |  |
| NC(=O)c1ccc(Nc2cc(-c3cccc(F)c3)nc3ncnn23)cc1 [Example 45] | < 3.70 | 4.91 | < 3.70 |  |  |  |
| NC(=O)c1sccc1Nc1cc(Cl)nc2ncnn12 [Example 47] | < 3.70 | < 3.70 | < 3.70 |  |  |  |
| Clc1cc(Nc2ccc3cn[nH]c3c2)n2ncnc2n1 [Example 48] | < 3.70 | 4.87 | < 3.70 |  |  |  |
| NC(=O)c1ccc(Nc2cc(Cl)nc3ncnn23)cc1 [Example 49] | < 3.70 | 4.62 | < 3.70 |  |  |  |
| CCOC(=O)c1ccc(Nc2cc(-c3cccc(O)c3)nc3ncnn23)cc1 [Example 50] | < 3.70 | 4.50 | < 3.70 |  |  |  |
| NS(=O)(=O)c1cccc(Nc2cc(Cl)nc3ncnn23)c1 [Example 52] | < 3.70 | 4.39 | < 3.70 |  |  |  |
| CCOC(=O)c1ccc(Nc2cc(Cl)nc3ncnn23)cc1 [Example 53] | < 3.70 | < 3.70 | < 3.70 |  |  |  |
| COc1ccc(-c2cc(Nc3cccc(Cl)c3)n3ncnc3n2)nc1 [Example 54] | < 3.70 | < 3.70 | < 3.70 |  |  |  |
| Clc1cc(NCc2ccncc2)n2ncnc2n1 [Example 56] | < 3.70 | 4.36 | < 3.70 |  |  |  |
| NS(=O)(=O)c1ccc(CNc2cc(OCC3CCCCC3)nc3ncnn23)cc1 [Example 57] |  |  |  | < 3.70 | 4.73 | < 3.70 |
| NS(=O)(=O)c1ccc(Nc2cc(NCc3ccccc3)nc3ncnn23)cc1 [Example 58] |  |  |  | < 3.70 | 4.87 | < 3.70 |
| NS(=O)(=O)c1ccc(Nc2cc(NCC3CCCCC3)nc3ncnn23)cc1 [Example 59] |  |  |  | 3.93 | 5.41 | 3.93 |
| Oc1ccccc1-c1cc(Nc2ccc3cn[nH]c3c2)n2ncnc2n1 [Example 60] |  |  |  | < 3.70 | 5.72 | < 3.70 |
| C[Si](C)(C)CCOCn1ncc2ccc(Nc3cc(Cl)nc4ncnn34)cc21 [Example 61] |  |  |  | < 3.70 | < 3.70 | < 3.70 |
| CCOc1cc(Nc2ccc(S(N)(=O)=O)cc2)n2ncnc2n1 [Example 62] |  |  |  | < 3.70 | 4.89 | < 3.70 |
| CN1CCN(c2cc(Nc3ccc(S(C)(=O)=O)cc3)n3ncnc3n2)CC1 [Example 63] |  |  |  | < 3.70 | 4.34 | < 3.70 |
